Test system: HUVEC
Test: Cytotoxicity against HUVEC after 24 hrs by MTT assay
Assay type: cell-based
Conditions: Homo sapiens

Structure (SMILES) | IC50 [µM]
O=S(=O)(Nc1nccs1)c1ccc(Nc2ccnc3cc(Cl)ccc23)cc1 | 74
Clc1ccc(Nc2ccnc3cc(Cl)ccc23)cc1 | 88
O=C1c2ccccc2C(=O)C(CCCc2ccc(Oc3ccccc3)cc2)C1O (centres undefined) | 75
O=C1c2ccccc2C(=O)c2c1oc1c2ccc2ccccc21 | 63
O=C(O)c1ccc(Nc2ccnc3cc(Cl)ccc23)cc1O | 90
Oc1ccc(Nc2ccnc3cc(Cl)ccc23)cc1 | 82
COc1ccc(CC(N)C(=O)N(C)C2C(CO)OC(n3cnc4c(N(C)C)ncnc43)C2O)cc1 (centres undefined) | 100
Clc1ccc2c(NC3CCC(NC4CCCCC4)CC3)ccnc2c1 (centres undefined) | 13
O=c1c(-c2ccc(O)cc2)coc2cc(O)cc(O)c12 [GENISTEIN] | 88

Source: ChEMBL document CHEMBL1146209, “In-silico fragment-based identification of novel angiogenesis inhibitors” (Bioorg Med Chem Lett, 2007)
